Measurements reported in patent US5554728A, “Lipid conjugates of therapeutic peptides and protease inhibitors” (priority 1991, dated 1996).
Read-outs that look alike come from different tables or passages of the source. Non-standard residues stand in square brackets, D forms with d. Residues, ends and D or L forms follow the SMILES beside them. *: point of attachment. d1Nal = N[C@H](Cc1cccc2ccccc12)C(=O)O; d2Nal = N[C@H](Cc1ccc2ccccc2c1)C(=O)O; Isobutyloxycarbonyl = CC(C)COC(=O)*; Hica(2S) = CC(C)C[C@H](O)C(=O)O; Pip = O=C(O)[C@@H]1CCCCN1

Tested on: HIV
Assay type: cell-based
Experimental: Assay For The Reduction of HIV Syncytia Formed In HT4-6C Cells
The syncytia reduction assay as described by Larder, B. et al., science 243:1731-1734(1989) was used to measure the antiviral effect of protease inhibitor. A Hela cell line, HT4-6C, expressing the human CD4 receptor on its surface was trypsinized with 0.25% trypsin for 5 min. Cells were centrifuged to remove the residual trypsin, and the cell pellet was resuspended in DMEM with 10% FCS. HeLa cells were plated in 96 well plate (1×10^5 cells/well) overnight. Cell cultures were infected with HIV (approx. 100 PFU/well) for one hour. The […] were then prepared in stock solutions, and were then two fold diluted in 2% DMEM with 0.5% methylcellulose. 100 μl of each diluted antiviral agent is added into each well of HIV infected cells. The treated cell cultures were incubated in 37° C. CO2 incubator for 24 hours. Plates of HIV-infected cell cultures were fixed with methanol and stained with 1% crystal violet for 10 min., the dye is rinsed off with tap water. Each plate is dried and syncytia were counted. The antiviral effect of protease inhibitor is calculated by 50% syncytia reduction.

[1] = antiviral effect calculated by 50% syncytia reduction, HIV-infected HT4-6C (HeLa, human CD4) cells, 24 hours incubation, read-out: IC50

IC50 (24 h) [µM]	IC50 [1] [µM]	SMILES
10		CC(C)COC(=O)N[C@H](Cc1ccccc1)C(=O)N[C@H](Cc1cccc2ccccc12)C(=O)N1CCCC[C@H]1C(=O)O[C@@H](CC(C)C)C(=O)N[C@H](C(N)=O)C(C)C [EXAMPLE 27-40, i-Boc-(D-Phe)-(D-a-Nal)-Pip-(a-(OH)-Leu)-Val-NH2] (Isobutyloxycarbonyl-[dF][d1Nal][Pip][Hica(2S)]V-NH2)
> 100		COC(=O)[C@@H]1CCCCN1C(=O)[C@@H](Cc1ccc2ccccc2c1)NC(=O)[C@H](C)NC(=O)[C@H](C)NC(C)=O [EXAMPLE 27-30, Ac-Ala-Ala-(D-b-Nal)-Pip-OMe] (Ac-AA[d2Nal][Pip]-OMe)
	1	CC(C)C(NC(=O)OC(C)(C)C)C(=O)NC(Cc1ccccc1)C(=O)OCC(O)C(O)COC(=O)C(Cc1ccccc1)NC(=O)C(NC(=O)OC(C)(C)C)C(C)C (stereo not drawn) [EXAMPLE 24, (Boc-Val-Phe-O--CH2 --CHOH)2]
	3	CC(C)(C)OC(=O)NC(CO)C(=O)NC(Cc1ccccc1)C(=O)OCC(O)C(O)COC(=O)C(Cc1ccccc1)NC(=O)C(CO)NC(=O)OC(C)(C)C (stereo not drawn) [EXAMPLE 25, (Boc-Ser-Phe-O--CH2 --CHOH)2]
